According to patent US20250042875A1, “PESTICIDALLY ACTIVE PYRIDAZINONE COMPOUNDS” (SYNGENTA CROP PROTECTION AG, priority 2021, published 2025):

What was measured:
Type in all cases: in vivo
Chilo suppressalis = assay: Activity against Chilo suppressalis (striped rice stemborer), artificial diet, L2 larvae; conditions: 144 h, application rate 200 ppm, 6 days after infestation, read-out: control in at least one of the three categories (mortality, anti-feedant effect, or growth inhibition)
Protocol: Example B1: Activity Against Chilo suppressalis (Striped Rice Stemborer)
24-well microtiter plates with artificial diet were treated with aqueous test solutions prepared from 10′000 ppm DMSO stock solutions by pipetting. After drying, the plates were infested with L2 larvae (6-8 per well). The samples were assessed for mortality, anti-feeding effect, and growth inhibition in comparison to untreated samples 6 days after infestation. Control of Chilo suppressalis by a test sample is given when at least one of the categories mortality, anti-feedant effect, and growth inhibition is higher than the untreated sample.

Diabrotica balteata = assay: Activity against Diabrotica balteata (corn root worm), maize sprouts, L2 larvae; conditions: 96 h, application rate 200 ppm, 4 days after infestation, read-out: control in at least one of the two categories (mortality or growth inhibition)
Protocol: Example B2: Activity Against Diabrotica Balteata (Corn Root Worm)
Maize sprouts placed onto an agar layer in 24-well microtiter plates were treated with aqueous test solutions prepared from 10′000 ppm DMSO stock solutions by spraying. After drying, the plates were infested with L2 larvae (6 to 10 per well). The samples were assessed for mortality and growth inhibition in comparison to untreated samples 4 days after infestation.

Euschistus heros = assay: Activity against Euschistus heros (neotropical brown stink bug), soybean leaves, N2 nymphs; conditions: 120 h, application rate 200 ppm, 5 days after infestation, read-out: effect in at least one of the two categories (mortality or growth inhibition)
Protocol: Example B3: Activity Against Euschistus heros (Neotropical Brown Stink Bug)
Soybean leaves on agar in 24-well microtiter plates were sprayed with aqueous test solutions prepared from 10′000 ppm DMSO stock solutions. After drying the leaves were infested with N2 nymphs. The samples were assessed for mortality and growth inhibition in comparison to untreated samples 5 days after infestation.

Myzus persicae [1] = assay: Activity against Myzus persicae (green peach aphid), feeding/contact activity; conditions: 144 h, application rate 200 ppm, 6 days after infestation
Protocol: Example B5: Activity Against Myzus persicae (Green Peach Aphid). Feeding/Contact Activity
Sunflower leaf discs were placed onto agar in a 24-well microtiter plate and sprayed with aqueous test solutions prepared from 10′000 ppm DMSO stock solutions. After drying, the leaf discs were infested with an aphid population of mixed ages. The samples were assessed for mortality 6 days after infestation.

Myzus persicae [2] = assay: Activity against Myzus persicae (green peach aphid), intrinsic activity; conditions: 120 h, test rate 12 ppm, 5 days after infestation
Text: Example B6: Activity Against Myzus persicae (Green Peach Aphid). Intrinsic Activity
Test compounds prepared from 10′000 ppm DMSO stock solutions were applied by pipette into 24-well microtiter plates and mixed with sucrose solution. The plates were closed with a stretched Parafilm. A plastic stencil with 24 holes was placed onto the plate and infested pea seedlings were placed directly on the Parafilm. The infested plate was closed with a gel blotting paper and another plastic stencil and then turned upside down. The samples were assessed for mortality 5 days after infestation.

Plutella xylostella = assay: Activity against Plutella xylostella (diamond back moth), artificial diet, eggs; conditions: 192 h, application rate 200 ppm, 8 days after infestation, read-out: control in at least one of the two categories (mortality or growth inhibition)
Protocol: Example B7: Activity Against Plutella xylostella (Diamond Back Moth)
24-well microtiter plates with artificial diet were treated with aqueous test solutions prepared from 10′000 ppm DMSO stock solutions by pipetting. After drying, Plutella eggs were pipetted through a plastic stencil onto a gel blotting paper and the plate was closed with it. The samples were assessed for mortality and growth inhibition in comparison to untreated samples 8 days after infestation.

Spodoptera littoralis = assay: Activity against Spodoptera littoralis (Egyptian cotton leaf worm), cotton leaf discs, L1 larvae; conditions: foliar, 72 h, application rate 200 ppm, 3 days after infestation, read-out: control in at least one of the three categories (mortality, anti-feedant effect, or growth inhibition)
Protocol: Example B8: Activity Against Spodoptera littoralis (Egyptian Cotton Leaf Worm)
Cotton leaf discs were placed onto agar in 24-well microtiter plates and sprayed with aqueous test solutions prepared from 10′000 ppm DMSO stock solutions. After drying the leaf discs were infested with five L1 larvae. The samples were assessed for mortality, anti-feeding effect, and growth inhibition in comparison to untreated samples 3 days after infestation. Control of Spodoptera littoralis by a test sample is given when at least one of the categories mortality, anti-feedant effect, and growth inhibition is higher than the untreated sample.

C[C@H](NC(=O)c1cc(C(F)(F)F)cc(C(C)(C)C#N)c1)c1ncnn1-c1ccc(=O)n(C)n1 [P43, 3-(1-cyano-1-methyl-ethyl)-N-[(1S)-1-[2-(1-methyl-6-oxo-pyridazin-3-yl)-1,2,4-triazol-3-yl]ethyl]-5-(trifluoromethyl)benzamide]
≥ 80%: percent control (mortality, anti-feedant effect or growth inhibition) at 200 ppm (Chilo suppressalis) | percent control (mortality or growth inhibition) at 200 ppm (Diabrotica balteata) | percent effect (mortality or growth inhibition) at 200 ppm (Euschistus heros) | mortality at 200 ppm (Myzus persicae [1]) | mortality at 12 ppm (Myzus persicae [2]) | percent control (mortality or growth inhibition) at 200 ppm (Plutella xylostella) | percent control (mortality, anti-feedant effect or growth inhibition) at 200 ppm (Spodoptera littoralis)

CC(NC(=O)c1cc(Cl)cc(OC(F)(F)F)c1)c1nccnc1-c1ccc(=O)n(C)n1 (centres unmarked) [P11, 3-chloro-N-[1-[3-(1-methyl-6-oxopyridazin-3-yl)pyrazin-2-yl]ethyl]-5-(trifluoromethoxy) benzamide]
≥ 80%: percent control (mortality, anti-feedant effect or growth inhibition) at 200 ppm (Chilo suppressalis) | percent control (mortality or growth inhibition) at 200 ppm (Diabrotica balteata) | percent effect (mortality or growth inhibition) at 200 ppm (Euschistus heros) | mortality at 200 ppm (Myzus persicae [1]) | mortality at 12 ppm (Myzus persicae [2]) | percent control (mortality or growth inhibition) at 200 ppm (Plutella xylostella) | percent control (mortality, anti-feedant effect or growth inhibition) at 200 ppm (Spodoptera littoralis)

C[C@H](NC(=O)c1cc(Cl)cc(Br)c1)c1ncnn1-c1ccc(=O)n(C)n1 [P27, 3-bromo-5-chloro-N-[(1S)-1-[2-(1-methyl-6-oxo-pyridazin-3-yl)-1,2,4-triazol-3-yl]ethyl]benzamide]
≥ 80%: percent control (mortality, anti-feedant effect or growth inhibition) at 200 ppm (Chilo suppressalis) | percent control (mortality or growth inhibition) at 200 ppm (Diabrotica balteata) | percent effect (mortality or growth inhibition) at 200 ppm (Euschistus heros) | mortality at 200 ppm (Myzus persicae [1]) | mortality at 12 ppm (Myzus persicae [2]) | percent control (mortality or growth inhibition) at 200 ppm (Plutella xylostella) | percent control (mortality, anti-feedant effect or growth inhibition) at 200 ppm (Spodoptera littoralis)

C[C@H](NC(=O)c1cc(C(F)(F)F)nc(C2(C#N)CC2)c1)c1ncnn1-c1ccc(=O)n(C)n1 [P33, 2-(1-cyanocyclopropyl)-N-[(1S)-1-[2-(1-methyl-6-oxo-pyridazin-3-yl)-1,2,4-triazol-3-yl]ethyl]-6-(trifluoromethyl)pyridine-4-carboxamide]
≥ 80%: percent control (mortality, anti-feedant effect or growth inhibition) at 200 ppm (Chilo suppressalis) | percent control (mortality or growth inhibition) at 200 ppm (Diabrotica balteata) | percent effect (mortality or growth inhibition) at 200 ppm (Euschistus heros) | mortality at 200 ppm (Myzus persicae [1]) | mortality at 12 ppm (Myzus persicae [2]) | percent control (mortality or growth inhibition) at 200 ppm (Plutella xylostella) | percent control (mortality, anti-feedant effect or growth inhibition) at 200 ppm (Spodoptera littoralis)

C[C@H](NC(=O)c1cc(Cl)cc(I)c1)c1ncnn1-c1ccc(=O)n(C)n1 [P28, 3-chloro-5-iodo-N-[(1S)-1-[2-(1-methyl-6-oxo-pyridazin-3-yl)-1,2,4-triazol-3-yl]ethyl]benzamide]
≥ 80%: percent control (mortality, anti-feedant effect or growth inhibition) at 200 ppm (Chilo suppressalis) | percent control (mortality or growth inhibition) at 200 ppm (Diabrotica balteata) | percent effect (mortality or growth inhibition) at 200 ppm (Euschistus heros) | mortality at 200 ppm (Myzus persicae [1]) | mortality at 12 ppm (Myzus persicae [2]) | percent control (mortality or growth inhibition) at 200 ppm (Plutella xylostella) | percent control (mortality, anti-feedant effect or growth inhibition) at 200 ppm (Spodoptera littoralis)

C[C@H](NC(=O)c1cc(Cl)cc(OC(F)(F)F)c1)c1ncnn1-c1ccc(=O)n(C)n1 [P26, 3-chloro-N-[(1S)-1-[2-(1-methyl-6-oxo-pyridazin-3-yl)-1,2,4-triazol-3-yl]ethyl]-5-(trifluoromethoxy)benzamide]
≥ 80%: percent control (mortality, anti-feedant effect or growth inhibition) at 200 ppm (Chilo suppressalis) | percent control (mortality or growth inhibition) at 200 ppm (Diabrotica balteata) | percent effect (mortality or growth inhibition) at 200 ppm (Euschistus heros) | mortality at 200 ppm (Myzus persicae [1]) | mortality at 12 ppm (Myzus persicae [2]) | percent control (mortality or growth inhibition) at 200 ppm (Plutella xylostella) | percent control (mortality, anti-feedant effect or growth inhibition) at 200 ppm (Spodoptera littoralis)

CC(NC(=O)c1cc(OC(F)F)cc(C(F)(F)F)c1)c1nccnc1-c1ccc(=O)n(C)n1 (centres unmarked) [P14, 3-(difluoromethoxy)-N-[1-[3-(1-methyl-6-oxo-pyridazin-3-yl)pyrazin-2-yl]ethyl]-5-(trifluoromethyl)benzamide]
≥ 80%: percent control (mortality, anti-feedant effect or growth inhibition) at 200 ppm (Chilo suppressalis) | percent control (mortality or growth inhibition) at 200 ppm (Diabrotica balteata) | percent effect (mortality or growth inhibition) at 200 ppm (Euschistus heros) | mortality at 200 ppm (Myzus persicae [1]) | mortality at 12 ppm (Myzus persicae [2]) | percent control (mortality or growth inhibition) at 200 ppm (Plutella xylostella) | percent control (mortality, anti-feedant effect or growth inhibition) at 200 ppm (Spodoptera littoralis)

C[C@H](NC(=O)c1cc(Br)cc(I)c1)c1ncnn1-c1ccc(=O)n(C)n1 [P30, 3-bromo-5-iodo-N-[(1S)-1-[2-(1-methyl-6-oxo-pyridazin-3-yl)-1,2,4-triazol-3-yl]ethyl]benzamide]
≥ 80%: percent control (mortality, anti-feedant effect or growth inhibition) at 200 ppm (Chilo suppressalis) | percent control (mortality or growth inhibition) at 200 ppm (Diabrotica balteata) | percent effect (mortality or growth inhibition) at 200 ppm (Euschistus heros) | mortality at 200 ppm (Myzus persicae [1]) | mortality at 12 ppm (Myzus persicae [2]) | percent control (mortality or growth inhibition) at 200 ppm (Plutella xylostella) | percent control (mortality, anti-feedant effect or growth inhibition) at 200 ppm (Spodoptera littoralis)

C[C@@H](c1ncnn1C1=NN(C)C(=O)CC1)N(C)C(=O)c1cc(Cl)cc(C(F)(F)F)c1 [P23, 3-chloro-N-methyl-N-[(1S)-1-[2-(1-methyl-6-oxo-4,5-dihydropyridazin-3-yl)-1,2,4-triazol-3-yl]ethyl]-5-(trifluoromethyl)benzamide]
≥ 80%: percent control (mortality, anti-feedant effect or growth inhibition) at 200 ppm (Chilo suppressalis) | percent control (mortality or growth inhibition) at 200 ppm (Diabrotica balteata) | percent effect (mortality or growth inhibition) at 200 ppm (Euschistus heros) | mortality at 200 ppm (Myzus persicae [1]) | mortality at 12 ppm (Myzus persicae [2]) | percent control (mortality or growth inhibition) at 200 ppm (Plutella xylostella) | percent control (mortality, anti-feedant effect or growth inhibition) at 200 ppm (Spodoptera littoralis)

C[C@H](NC(=O)c1cc(C(F)(F)F)cc(S(=O)(=O)C(F)(F)F)c1)c1ncnn1-c1ccc(=O)n(C)n1 [P8, N-[(1S)-1-[2-(1-methyl-6-oxo-pyridazin-3-yl)-1,2,4-triazol-3-yl]ethyl]-3-(trifluoromethyl)-5-(trifluoromethylsulfonyl) benzamide]
≥ 80%: percent control (mortality, anti-feedant effect or growth inhibition) at 200 ppm (Chilo suppressalis) | percent control (mortality or growth inhibition) at 200 ppm (Diabrotica balteata) | percent effect (mortality or growth inhibition) at 200 ppm (Euschistus heros) | mortality at 200 ppm (Myzus persicae [1]) | mortality at 12 ppm (Myzus persicae [2]) | percent control (mortality or growth inhibition) at 200 ppm (Plutella xylostella) | percent control (mortality, anti-feedant effect or growth inhibition) at 200 ppm (Spodoptera littoralis)

C[C@H](NC(=O)c1cc(Br)cc(Br)c1)c1ncnn1-c1ccc(=O)n(C)n1 [P29, 3,5-dibromo-N-[(1S)-1-[2-(1-methyl-6-oxo-pyridazin-3-yl)-1,2,4-triazol-3-yl]ethyl]benzamide]
≥ 80%: percent control (mortality, anti-feedant effect or growth inhibition) at 200 ppm (Chilo suppressalis) | percent control (mortality or growth inhibition) at 200 ppm (Diabrotica balteata) | percent effect (mortality or growth inhibition) at 200 ppm (Euschistus heros) | mortality at 200 ppm (Myzus persicae [1]) | mortality at 12 ppm (Myzus persicae [2]) | percent control (mortality or growth inhibition) at 200 ppm (Plutella xylostella) | percent control (mortality, anti-feedant effect or growth inhibition) at 200 ppm (Spodoptera littoralis)
